The term EC50 denotes the concentration giving half of the maximal effect. In general, TGI refers to the reduction of tumour growth relative to the control group. Low values mean little slowing of growth, high ones much slowing of growth. In general, inhibition refers to how much of the control response was suppressed.

3 compounds from patent US8962637B2, “Bicyclic compounds and their uses as dual c-SRC/JAK inhibitors” (Debiopharm S.A., priority 2010, dated 2015) can be followed below.

The target of one data set is c-Src (Homo sapiens (Human), UniProt P12931). The data set can be described thus: TR-FRET c-Src kinase assay. In kind it is biochemical. The conditions noted are these: ATP 50 μM; for inhibition at 0.1 µM: read-out: c-SRC % inhibition at 100 nM, 100 nM; for inhibition at 1 µM: read-out: c-SRC % inhibition at 1 μM. Here is the method: Compounds were screened in the TR-FRET assay for JAK2 and c-Src kinase inhibition. Ultra light poly GT (Perkin Elmer) was used as the substrate for JAK2 and c-Src with the ATP concentration of 10 μM and 50 μM, respectively. […] The dose-response curve fitting was done using GraphPad Prism software.
c-Src, sequence (P12931 whole entry, looked up): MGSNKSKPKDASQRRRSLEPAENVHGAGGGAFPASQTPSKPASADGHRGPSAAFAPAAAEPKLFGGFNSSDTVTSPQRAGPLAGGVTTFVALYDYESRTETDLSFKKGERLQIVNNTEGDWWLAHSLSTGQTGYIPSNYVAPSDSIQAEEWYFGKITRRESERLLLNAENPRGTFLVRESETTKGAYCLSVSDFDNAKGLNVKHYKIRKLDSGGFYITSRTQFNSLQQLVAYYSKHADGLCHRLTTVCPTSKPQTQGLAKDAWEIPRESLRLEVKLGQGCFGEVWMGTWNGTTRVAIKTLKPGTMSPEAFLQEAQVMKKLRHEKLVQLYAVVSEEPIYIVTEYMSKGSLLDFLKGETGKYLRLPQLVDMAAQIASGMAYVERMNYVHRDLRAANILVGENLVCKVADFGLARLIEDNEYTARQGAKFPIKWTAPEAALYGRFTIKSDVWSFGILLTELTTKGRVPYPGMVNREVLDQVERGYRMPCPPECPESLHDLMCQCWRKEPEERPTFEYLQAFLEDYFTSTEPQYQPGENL
Background: Time-resolved FRET reads energy transfer from a long-lived donor to a nearby acceptor.

The test system of data set [1] is pStat3. The data set is described as follows: Quantification of pStat3 in PBMCs by flow cytometry. In kind it is in vivo, mice. Here is the method: Phosphorylation of Stat3 was stimulated by addition of hIL6 (10 ug/mL) for 30 min at 37° C. Blood was fixed with formaldehyde (final 2% v/v) for 10 min at 37° C.
Buffy coat (PBMCs) was separated by aspirating translucent layer using pipetteman and washed twice with PBS-1×
Pre chilled PBMC's were permeabilized by adding ice cold Methanol, while vortexing gently (final volume 90% MeOH v/v) and incubated for 30 min on ice.
Permeabilized PBMCs were washed with PBS once. PBMCs re-suspended to 2×10^6 cells in 200 μL of incubation buffer for 10 min at room temperature (RT). Primary Ab was added (1:100 dilution) and incubated 45 min at RT. Washed as before (twice) and re-suspended in fluorochrome conjugated secondary Ab (1:500 dilution) and incubated at RT in dark for 30 min. Washed and re-suspended in […] PBS.
Measured pStat3 using FACS caliber machine (BD). Unstained PBMCs was used for cytometry settings. […] Histograms (cell number V/s FL1-H) were plotted. Percentage of cells that are phosphorylated by IL6 stimulation (M2 population), and inhibition of phosphorylation by inhibitor (decrease in M2 population) are calculated on histogram by marking peaks, M1 and M2.

For the next data set, the system named is Mda-Mb-231 cells. The data set is described as follows: Cell viability assay (XTT assay), Mda-Mb-231. The conditions noted are these: Homo sapiens, 72 hrs. It is filed as cell-based. The method in brief: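 MDA-MB-231 cells seeded and dosed next day in triplicate, incubated 72 h. Medium replaced with XTT working solution for 2-5 h, absorbance read at 465 nm, and EC50 values derived from the readings.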
For orientation: Tetrazolium dyes change colour on reduction, which living cells bring about.

Data set [2] relates to pStat3. The data set is described as follows: In-Cell-Western blot assay for pStat3 (ICW) in A431 cells. The conditions noted are these: Homo sapiens, A-431, 2 hrs, read-out: pSTAT3 inhibition. In kind it is cell-based. The method in brief: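 Serum-starved (overnight) A431 cells treated with compound for 2 hrs, then fixed, permeabilized and probed with phospho-Stat3 antibody plus europium-labelled secondary. Europium signal normalized to Hoechst for cell number; IC50 calculated from normalized values.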

The subject of another data set is A431 tumor cells. The data set can be described thus: A431 xenograft model. The conditions noted are these: for TGI: Efficacy - A431 at 100 MPK. In kind it is in vivo, athymic nude mice. Here is the method: SC injection of 5×10^6 A431 tumor cells with Matrigel® on the left flank of 24 female athymic nude mice. Randomization of mice 14 days after tumor cell injection into 3 groups of 8 mice each with a mean tumor volume of 90±1 mm3.
(§1) Formulation: 20% HPC, 2% ethanol solution in PBS for the compound No. 45
• Normal saline for Gefitinib® Dosing route: Oral for the compound No. 45 and Gefitinib® Dose Volume: 10 mL/Kg body weight Dosing schedule: Once daily for 14 consecutive days (Q1Dx14) PK-PD experiment in A431 model: Tumors were allowed to grow to 250 mm^3 size. Compounds were dosed once and PBMCs and tumors were collected at Tmax for pStat3 estimation. Plasma was also collected to estimate drug concentration estimation. Efficacy experiment in A431 model: Dosage: • Group1. Vehicle control • Group2. Compound No. 45—150 MPK • Group3. […] Plasma collected for drug concentration estimation and whole blood was collected to isolate PBMCs to determine pStat3 inhibition by flow cytometry as PD readout. Tumors were snap frozen in liquid nitrogen and stored at −80° C. to estimate pStat3 by flow cytometry as PD readout Determination of Plasma Drug Concentration: […]

For data set [3], the system named is B16F10 tumor cells. The data set is described as follows: B16F10 survival model. In kind it is in vivo, C57B16 mice. Here is the method: (§2) IV injection of 0.1×10^6 B16F10 tumor cells in the tail vain of 60 male C57B16 mice. Randomization of mice one day after tumor cell injection into 4 groups of 15 mice. Out of 15, 6 mice were sacrificed on 14th day for counting metastatic foci on lungs. Rest 9 mice were dosed continuously till morbidity/mortality for recording survival.
(§3) Plasma collected for drug concentration estimation and whole blood was collected to isolate PBMCs to determine pStat3 inhibition by flow cytometry as PD readout.

In the next data set the target is JAK1 (Homo sapiens (Human), UniProt P23458). The data set is described as follows: JAK1 kinase inhibition. In kind it is biochemical.
JAK1, sequence (P23458 whole entry): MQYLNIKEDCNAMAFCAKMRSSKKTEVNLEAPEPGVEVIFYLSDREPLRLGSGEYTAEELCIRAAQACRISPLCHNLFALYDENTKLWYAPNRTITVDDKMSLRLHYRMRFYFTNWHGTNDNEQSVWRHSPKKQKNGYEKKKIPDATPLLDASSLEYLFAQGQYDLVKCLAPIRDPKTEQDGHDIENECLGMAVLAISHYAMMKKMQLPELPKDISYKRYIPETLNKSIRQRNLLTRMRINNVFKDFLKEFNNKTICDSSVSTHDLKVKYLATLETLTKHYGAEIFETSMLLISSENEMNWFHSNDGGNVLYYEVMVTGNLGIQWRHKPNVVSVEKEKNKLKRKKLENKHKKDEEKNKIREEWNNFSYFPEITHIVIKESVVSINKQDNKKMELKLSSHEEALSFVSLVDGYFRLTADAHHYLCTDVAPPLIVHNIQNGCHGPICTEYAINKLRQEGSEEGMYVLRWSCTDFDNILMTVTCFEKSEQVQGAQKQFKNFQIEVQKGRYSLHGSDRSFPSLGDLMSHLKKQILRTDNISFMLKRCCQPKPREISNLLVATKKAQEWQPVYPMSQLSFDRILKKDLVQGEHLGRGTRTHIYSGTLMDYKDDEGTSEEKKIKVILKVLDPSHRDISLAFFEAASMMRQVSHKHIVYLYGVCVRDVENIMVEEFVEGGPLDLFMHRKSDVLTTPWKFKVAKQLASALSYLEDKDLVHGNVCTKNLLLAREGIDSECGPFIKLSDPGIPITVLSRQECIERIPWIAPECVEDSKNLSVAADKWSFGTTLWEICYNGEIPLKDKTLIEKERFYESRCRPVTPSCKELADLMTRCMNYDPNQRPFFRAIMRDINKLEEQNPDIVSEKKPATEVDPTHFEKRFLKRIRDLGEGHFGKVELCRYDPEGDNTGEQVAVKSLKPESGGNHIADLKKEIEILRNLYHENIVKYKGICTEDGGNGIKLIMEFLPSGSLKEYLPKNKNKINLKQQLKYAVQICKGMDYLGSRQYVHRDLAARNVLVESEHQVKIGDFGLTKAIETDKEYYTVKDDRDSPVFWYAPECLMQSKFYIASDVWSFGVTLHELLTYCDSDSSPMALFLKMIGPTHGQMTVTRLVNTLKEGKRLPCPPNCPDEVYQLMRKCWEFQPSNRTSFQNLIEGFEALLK
For data set [4] the following is noted: mouse, in vivo.
The test system of data set [5] is B16F10 tumor cells. The data set is described as follows: B16F10 metastasis model. The conditions noted are these: for Metastasis Inhibition: B16F10 model; for % metastasis inhib.: Efficacy - B16F10 at 100 MPK. In kind it is in vivo, C57B16 mice. Here is the method: as §2, §1, §3

Molecules are shown by their SMILES.

For the compound `Cc1ccc(NC(=O)c2cccc(C(F)(F)F)c2)cc1N1CCc2nc(Nc3ccc(N4CCN(C)CC4)cc3)ncc2C1=O` [Compound 45, N-(4-Methyl-3-{2-[4-(4-methyl-piperazin-1-yl)-phenylamino]-5-oxo-7,8-dihydro-5H-pyrido[4,3-d]pyrimidin-6-yl}-phenyl)-3-trifluoromethyl-benzamide], the figures for the IC50 at c-Src, in the data set on pStat3 [2] and on JAK1 were 0.01 µM, 0.22 µM and 0.116 µM, respectively. Also, the “PBMCs % pStat3 inhibition” value in the data set on pStat3 [1] (A431 Xenograft model, 100 MPK) stood at 56.32%; in the data set on pStat3 [1] (A549 Xenograft model, 10 MPK) it was 55.61%; with pStat3 [1] (A549 Xenograft model, 30 MPK) it was 60.66%; in the data set with pStat3 [1] (A549 Xenograft model, 100 MPK), 65.28%; in the data set with pStat3 [1] (A549 Xenograft model, 150 MPK) it was 76.56%; in the data set on pStat3 [1] (B16F10 model, 30 MPK) it was 66%. Besides, the “PBMCs % pStat3 inhibition” value with pStat3 [1] (B16F10 model, 100 MPK) is 73%. Besides, the “% pSTAT3 inhibition in PBMCs (MTD study)” value in the data set on pStat3 [1] (at 100 MPK) was determined as 84% at. In the data set on Mda-Mb-231 cells, a half-maximal response (EC50) required 1.83 µM. Also, the “% TGI” value in the data set on A431 tumor cells (A431 Xenograft model, 100 MPK) amounted to 52.55%. In addition, the TGI in the data set on A431 tumor cells turned out to be 48%. For the same compound, the Survival advantage turned out to be 37.5% in the data set on B16F10 tumor cells [3] (B16F10 survival model, dosing Q1Dx14) and 9 days in the data set with B16F10 tumor cells [3] (Efficacy - B16F10 at 100 MPK). For the same compound, the inhibition at 0.1 µM at JAK1 (read-out: JAK1 % inhibition at 100 nM) was 56%. Further, on JAK1 (read-out: JAK1 % inhibition at 1 μM), the inhibition at 1 µM was 82%. Moreover, the good tolerance entry in data set [4] (athymic, 14 days) was “up to 250 MPK”. Further, in data set [4], the MTD was 250 MPK. The anti-tumor activity result with B16F10 tumor cells [5] (B16F10 metastasis model) is “good anti-tumor activity”. The “reduction in metastatic counts on lungs” value in the data set with B16F10 tumor cells [5] (B16F10 metastasis model, 100 MPK, Q1Dx14) is listed as 75%. The “Metastasis Inhibition” value with B16F10 tumor cells [5] (30 MPK) was 73%; in the data set with B16F10 tumor cells [5] (100 MPK), 75%. Moreover, in the data set on B16F10 tumor cells [5], the “% metastasis inhib.” value came out at 75%.
Take `Cc1ccc(NC(=O)c2cccc(C(F)(F)F)c2)cc1N1CCc2nc(Nc3ccc(C(=O)NC4CC4)nc3)ncc2C1` [Compound 117, 5-{6-[2-Methyl-5-(3-trifluoromethyl-benzoylamino)-phenyl]-5,6,7,8-tetrahydro-pyrido[4,3-d]pyrimidin-2-ylamino}-pyridine-2-carboxylic acid cyclopropylamide]: on c-Src, the inhibition at 0.1 µM is 80% and the inhibition at 1 µM worked out at 96%. The “% pSTAT3 inhibition in PBMCs (MTD study)” value with pStat3 [1] (at 100 MPK) came out at 83% at. The same compound gave an EC50 in the data set on Mda-Mb-231 cells of 0.66 µM. Besides, in the data set on pStat3 [2], the IC50 is 0.34 µM. The TGI in the data set on A431 tumor cells came out at 54%. The compound further yielded a Survival advantage in the data set with B16F10 tumor cells [3] (Efficacy - B16F10 at 100 MPK) of 1 day days. On JAK1, this compound returned an IC50 of 0.024 µM. This compound showed an MTD in [4] of 100 MPK. In the data set with B16F10 tumor cells [5], the “% metastasis inhib.” value was 26%.
In the case of `CNC(=O)c1ccc(Nc2ncc3c(n2)CCN(c2cc(NC(=O)c4cc(C(F)(F)F)ccn4)ccc2Cl)C3)cc1` [Compound 179, 4-Trifluoromethyl-pyridine-2-carboxylic acid {4-chloro-3-[2-(4-methylcarbamoyl-phenylamino)-7,8-dihydro-5H-pyrido[4,3-d]pyrimidin-6-yl]-phenyl}-amide], on c-Src, the IC50 worked out at 0.015 µM, the inhibition at 0.1 µM was 79% and the inhibition at 1 µM worked out at 93%. Further, the “% pSTAT3 inhibition in PBMCs (MTD study)” value in the data set with pStat3 [1] (at 30 MPK) came out at 65% at. This compound also registered an EC50 in the data set on Mda-Mb-231 cells of 0.9 µM. The IC50 with pStat3 [2] was 0.28 µM. In the data set on A431 tumor cells, this compound registered an inhibition of tumour growth (TGI) of 67%. Moreover, in the data set with B16F10 tumor cells [3] (Efficacy - B16F10 at 100 MPK), the Survival advantage stood at 4 days. For the same compound, on JAK1, the IC50 came out at 0.012 µM. For the same compound, the MTD in data set [4] is listed as 30 MPK. The “% metastasis inhib.” value with B16F10 tumor cells [5] was 47%.
